# Data published in patent publication US11458141B2, “Aryl hydrocarbon receptor (AhR) agonists for the prevention and treatment of inflammatory disorders” (The Johns Hopkins University, priority 2017, dated 2022).
# “Also recorded” adds a separate entry of the source.
# Assays:
# [1] = system: AHR signaling pathway; test: Maternal I3C administration, Cypla1 mRNA in ileum of offspring with NEC; type: in vivo, mouse; conditions: mums 25 mg/kg oral gavage E7 to P7
# Procedure: The pups whose mums received 25 mg/kg indole-3-carbinol (13C) by oral gavage starting from the embryonic age 7 (E7) of the fetus until the postnatal day 7 (P7) were included in maternal […]-rich group, while the pups whose mums received vehicle were included in maternal […]-free group. Necrotizing enterocolitis (NEC) was induced in 7-day-old mouse pups by gavage feeding and hypoxia exposure for 4 days. The ileum was harvested at the end of experiment and the mRNA expression of target genes was analyzed by qPCR. Referring now to FIG. 7, the mRNA expression of Cypla1, the down-stream gene of AHR signaling, was quantified in the ileum of experimental NEC models. Data are represented as mean±SEM; *p<0.05 between indicated groups; each dot represents an individual mouse.
# [2] = system: Toll-like receptor 4 (Tlr4) mRNA in IEC-6 cells; test: Tlr4 mRNA and microRNA expression in IEC-6 cells treated with I3C; type: cell-based, rat
# Procedure: Rat intestinal epithelial cell line IEC-6 was treated with aryl hydrocarbon receptor (AHR) agonist indole-3-carbinol (13C) for 4 and 6 hours, and then the expression of Toll-like receptor 4 (Tlr4) mRNA and the microRNAs, which have been reported to down-regulate Tlr4 transcription, were quantified, respectively. Referring now to FIG. 22, the mRNA expression of Tlr4 was quantified in IEC-6 cells treated with AHR agonist […] for 6 hours. Data are represented as mean±SEM; *p<0.05 between indicated groups; each dot represents an individual sample. […] Referring now to FIG. 23, the expression of let-7i, miR-223, and miR-146b, which are microRNAs known to inhibit Tlr4 mRNA expression, was quantified in IEC-6 cells treated with AHR agonist […] for 4 hours. Data are represented as mean±SEM; *p<0.05 between indicated groups; each dot represents an individual sample.
# [3] = system: mice with NEC; test: Experimental NEC model in 7-day-old mice (formula gavage, hypoxia, NEC stool bacteria), NEC severity; type: in vivo, mouse; conditions: for NEC severity: I3C oral 50 mg/kg/day, 50 mg/kg/day
# Excerpt: The development of NEC requires TLR4 signaling in the intestinal epithelium. In seeking to understand the biological underpinnings of NEC, it has been discovered that activation within the intestinal epithelium of the receptor for gram-negative bacteria, namely toll-like receptor 4 (TLR4), is critical for the development of NEC. […] Further, mice that lack TLR4 in the intestinal epithelium (herein referred to as TLR4^ΔIEC mice) or globally (TLR4^−/−) were generated and then subjected to the well validated NEC model at 7 days of age. Mice were gavaged with formula, i.e., Similac Advance infant formula (Abbott Nutrition):Esbilac canince milk replacer (PetAb) in a 2:1 ratio at 50 μL/g every 3 hours, 10 mins hypoxia (5% O2 95% N2 in a Billups-Rothenberg chamber) twice daily for four days, and oral gavage of bacteria (1×10^5 cfu/mL) obtained from the stool of a patient with severe NEC. This experimental protocol induces patchy small intestinal necrosis, intestinal edema, and mucosal disruption very similar to human NEC in wild-type mice (FIG. 10), while mice lacking TLR4 in the intestinal epithelium (TLR4^ΔIEC mice) or globally (TLR4^−/−) were protected from NEC development. Mechanistically, TLR4 activation in the intestinal epithelium leads to an increase in apoptosis and a reduction in proliferation within the intestinal epithelium which leads to mucosal injury (FIG. 11). […]
# Another aspect of the presently disclosed subject matter was to identify novel agonists of AHR which could be orally administered to prevent or treat experimental NEC, and which have greater potency and pharmacokinetic properties than the dietary-derived ligand I3C. To do so, an AHR-luciferase screen in intestinal epithelial cells (IEC-6 cells) was developed, then compound libraries were screened, and validation in vitro and in vivo using readouts of AHR activation by measuring the expression of Cyp1 was performed. […]
# [4] = system: AHR activation and TLR4 signaling in enteroids; test: Mouse enteroids: Cypla1 induction and TLR4 signaling; type: cell-based; conditions: I3C 200 μM
# Excerpt: AHR activation by I3C or breast milk limits TLR4 signaling in the intestinal epithelium (FIG. 14). In seeking to investigate how AHR signaling attenuates NEC severity, whether AHR activation could limit the degree of TLR4 signaling in the gut was investigated. To do so, enteroids were derived from wild-type mice, which are intestinal cultures containing all cell lineages derived from intestinal crypts, as have been described.
# [5] = system: mice with NEC; test: I3C to the pregnant mother (50 mg/kg/day), AHR activation and NEC in the pup; type: in vivo, mouse
# Excerpt: The administration of the AHR ligand I3C to the pregnant mother prevents NEC in the newborn mouse (FIG. 16). […] Another aspect of the presently disclosed subject matter is to develop a diet rich in AHR ligands that could be administered to the mother, and protect against the development of NEC. […]
# [6] = I3C 50 mg/kg/d to pregnant mice
smiles,measurement,setting,value
"OCc1c[nH]c2ccccc12 [I3C, indole-3-carbinol]",mRNA expression of Cypla1 (AHR signaling) in offspring,[1],significantly activated the AHR signaling pathway
same,expression of let-7i,[2]; 4 hours,significantly increased
same,expression of miR-146b,[2]; 4 hours,significantly increased
same,expression of miR-223,[2]; 4 hours,significantly increased
same,mRNA expression of Tlr4,[2]; 6 hours,significantly reduced the expression of Tlr4 mRNA
same,NEC severity,[3]; AHR-/- mice,but not AHR^−/− mice; also recorded: does not protect
same,expression of proinflammatory gene IL-1,[3]; mice afflicted with NEC,reduced the expression of proinflammatory gene IL-1
same,NEC severity,[3]; wild-type mice,reduces NEC severity; also recorded: limits NEC severity
same,Cypla1 induction,[4]; enteroids from wild-type mice,significantly induced the downstream molecule Cypla1; also recorded: induces Cypla1
same,TLR4 signaling (cytokine/TNF induction),"[4]; enteroids, conditioned media from NEC stool bacteria",reduced TLR4 signaling; also recorded: reduces TNF
same,NEC severity in the pup,[5]; [6],significantly reduced NEC severity; also recorded: prevents NEC in the newborn mouse pup
same,cytokine (IL-6) induction in the pup,[5]; [6],reduced cytokine induction; also recorded: decreased IL-6 expression
same,enterocyte apoptosis in the pup,[5]; [6],reduced enterocyte apoptosis
same,mucosal injury / histology in the pup,[5]; [6],reduced; also recorded: improved histology
same,proliferation in the pup intestinal mucosa,[5]; [6],improved proliferation
same,Cypla1 expression in the intestine (AHR activation in utero),"[5]; I3C oral 50 mg/kg/day to the pregnant mother, 50 mg/kg/day",induced the downstream gene Cypla1 in the pup intestine; also recorded: leads to expression of Cypla1 in the intestinal epithelium of both the mother and the fetus
